Reference: patent publication US10287305B2, “Substituted piperidine compound and use thereof” (Takeda Pharmaceutical Company Limited, priority 2016, dated 2019)

Target: human orexin type 2 receptor (hOX2R) (Homo sapiens (Human), UniProt O43614)
Assay: Measurement of orexin type 2 receptor agonist activity (Experimental Example 2-1, FLIPR TETRA, intracellular Ca2+)
Type: cell-based
Settings: CHO dhfr- cells expressing hOX2R; for Emax: read-out: Emax (%); for Emax at 30 µM: value at 30 uM concentration, orexin B as full agonist = 100%
[1] = agonist activity, 10 nM human orexin B = 100%

Chain of human orexin type 2 receptor (hOX2R) (O43614 whole entry): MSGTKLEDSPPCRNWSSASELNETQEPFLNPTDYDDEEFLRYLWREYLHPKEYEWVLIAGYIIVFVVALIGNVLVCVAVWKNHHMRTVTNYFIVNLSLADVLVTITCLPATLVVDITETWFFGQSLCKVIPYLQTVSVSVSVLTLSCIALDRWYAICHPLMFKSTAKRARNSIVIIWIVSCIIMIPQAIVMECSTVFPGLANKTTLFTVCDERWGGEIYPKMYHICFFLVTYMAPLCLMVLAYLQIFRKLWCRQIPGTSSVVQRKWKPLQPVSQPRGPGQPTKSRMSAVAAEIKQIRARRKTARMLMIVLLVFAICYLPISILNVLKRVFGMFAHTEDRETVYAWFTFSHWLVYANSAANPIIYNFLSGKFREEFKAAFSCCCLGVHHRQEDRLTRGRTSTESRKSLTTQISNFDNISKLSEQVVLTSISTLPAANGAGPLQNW

Row | EC50 (FLIPR TETRA, Fluo-4AM) | Emax (FLIPR TETRA, Fluo-4AM) | EC50 [1] | Emax at 30 µM | Compound
1 | 1700 nM | 90% |  |  | CC(C)C(=O)N1CCC[C@H](NS(C)(=O)=O)[C@@H]1COC1CCN(c2ccccc2F)CC1 (relative stereo) [Example 224, N-(cis-2-(((1-(2-fluorophenyl)piperidin-4-yl)oxy)methyl)-1-isobutyrylpiperidin-3-yl)methanesulfonamide]
2 | 2400 nM | 88% |  |  | CC(=O)N1CCC[C@H](NS(C)(=O)=O)[C@@H]1CO[C@H]1CC[C@@H](C)CC1 (relative stereo) [Example 128, N-(cis-1-acetyl-2-(((cis-4-methylcyclohexyl)oxy)methyl)piperidin-3-yl)methanesulfonamide]
3 | 140 nM | 91% |  |  | CS(=O)(=O)N[C@H]1CCCN(C(=O)Cc2nccs2)[C@H]1CO[C@H]1CC[C@@H](c2ccccc2)CC1 (relative stereo) [Example 157, N-(cis-2-(((cis-4-phenylcyclohexyl)oxy)methyl)-1-(1,3-thiazol-2-ylacetyl)piperidin-3-yl)methanesulfonamide]
4 | 1800 nM | 86% |  |  | CS(=O)(=O)N[C@H]1CCCN(C(=O)C2CCCCC2)[C@H]1COC1CCN(c2ccccc2F)CC1 (relative stereo) [Example 236, N-(cis-1-(cyclohexylcarbonyl)-2-(((1-(2-fluorophenyl)piperidin-4-yl)oxy)methyl)piperidin-3-yl)methanesulfonamide]
5 | 2600 nM | 80% |  |  | CC(C)CC(=O)N1CCC[C@H](NS(C)(=O)=O)[C@@H]1COC1CCN(c2ccccc2F)CC1 (relative stereo) [Example 230, N-(cis-2-(((1-(2-fluorophenyl)piperidin-4-yl)oxy)methyl)-1-(3-methylbutanoyl)piperidin-3-yl)methanesulfonamide]
6 |  |  | 840 nM | 98% | CC(C)[C@H]1CC[C@@H](OC[C@H]2[C@@H](NS(C)(=O)=O)CCCN2C(=O)COc2ccn(C)n2)CC1 [Example 84, N-((2R,3S)-2-(((cis-4-isopropylcyclohexyl)oxy)methyl)-1-(((1-methyl-1H-pyrazol-3-yl)oxy)acetyl)piperidin-3-yl)methanesulfonamide]
7 |  |  | 330 nM | 100% | COCC(=O)N1CCC[C@H](NS(C)(=O)=O)[C@@H]1CO[C@H]1CC[C@@H](C(C)C)CC1 (relative stereo) [Example 45, N-(cis-2-(((cis-4-isopropylcyclohexyl)oxy)methyl)-1-(methoxyacetyl)piperidin-3-yl)methanesulfonamide]
8 |  |  | 560 nM | 92% | CC(C)[C@H]1CC[C@@H](OC[C@H]2[C@@H](NS(C)(=O)=O)CCCN2C(=O)CC(C)(C)O)CC1 (relative stereo) [Example 73, N-(cis-1-(3-hydroxy-3-methylbutanoyl)-2-(((cis-4-isopropylcyclohexyl)oxy)methyl)piperidin-3-yl)methanesulfonamide]
9 |  |  | 7.9 nM | 94% | CS(=O)(=O)N[C@H]1CCCN(C(=O)CO)[C@H]1CO[C@H]1CC[C@@H](c2cccc(F)c2F)CC1 [Example 25, N-((2R,3S)-2-(((cis-4-(2,3-difluorophenyl)cyclohexyl)oxy)methyl)-1-glycoloylpiperidin-3-yl)methanesulfonamide]
10 | 3.1 nM | 106% |  |  | COC(=O)N1CCC[C@H](NS(=O)(=O)N(C)C)[C@@H]1CO[C@H]1CC[C@@H](c2ccccc2)CC1 [Example 309, methyl (2R,3S)-3-((dimethylsulfamoyl)amino)-2-(((cis-4-phenylcyclohexyl)oxy)methyl)-piperidine-1-carboxylate]
11 |  |  | 68 nM | 98% | CCS(=O)(=O)N[C@H]1CCCN(C(C)=O)[C@H]1CO[C@H]1CC[C@@H](C(C)C)CC1 [Example 33, N-((2R,3S)-1-acetyl-2-(((cis-4-isopropylcyclohexyl)oxy)methyl)piperidin-3-yl)ethanesulfonamide]
12 |  |  | 97 nM | 98% | CC(=O)N1CCC[C@H](NS(C)(=O)=O)[C@@H]1CO[C@H]1CC[C@@H](C(C)C)CC1 [Example 70, N-((2R,3S)-1-acetyl-2-(((cis-4-isopropylcyclohexyl)oxy)methyl)piperidin-3-yl)methanesulfonamide]
13 | 2.9 nM | 107% |  |  | [2H]C([2H])([2H])OC(=O)N1CCC[C@H](NS(C)(=O)=O)[C@@H]1CO[C@H]1CC[C@@H](c2ccccc2)CC1 [Example 191, methyl-d3 (2R,3S)-3-((methylsulfonyl)amino)-2-(((cis-4-phenylcyclohexyl)oxy)methyl)piperidine-1-carboxylate]
14 | 170 nM | 103% |  |  | CN(C)S(=O)(=O)N[C@H]1CCCN(C(=O)OCC(F)(F)F)[C@H]1COC1CCN(c2ncccn2)CC1 (relative stereo) [Example 315, 2,2,2-trifluoroethyl cis-3-((dimethylsulfamoyl)amino)-2-(((1-(pyrimidin-2-yl)piperidin-4-yl)oxy)methyl)piperidine-1-carboxylate]
15 |  |  | 17 nM | 104% | CC(C)OC(=O)N1CCC[C@H](NS(=O)(=O)N(C)C)[C@@H]1COC1CCN(c2ncccn2)CC1 [Example 29, isopropyl (2R,3S)-3-((dimethylsulfamoyl)amino)-2-(((1-(pyrimidin-2-yl)piperidin-4-yl)oxy)methyl)piperidine-1-carboxylate]
16 |  |  | 4.5 nM | 108% | CC(C)[C@H]1CC[C@@H](OC[C@H]2[C@@H](NS(C)(=O)=O)CCCN2C(=O)NCCO)CC1 (relative stereo) [Example 97, cis-N-(2-hydroxyethyl)-2-(((cis-4-isopropylcyclohexyl)oxy)methyl)-3-((methylsulfonyl)amino)piperidine-1-carboxamide]
17 |  |  | 130 nM | 115% | CS(=O)(=O)N[C@H]1CCCN[C@H]1CO[C@H]1CC[C@@H](c2c(F)cccc2F)CC1 [Example 13, N-((2R,3S)-2-(((cis-4-(2,6-difluorophenyl)cyclohexyl)oxy)methyl)piperidin-3-yl)methanesulfonamide]
18 | 610 nM | 93% |  |  | CS(=O)(=O)N[C@H]1CCCN[C@H]1CO[C@H]1CC[C@@H](c2ccccc2Cl)CC1 (relative stereo) [Example 332, N-(cis-2-(((cis-4-(2-chlorophenyl)cyclohexyl)oxy)-methyl)piperidin-3-yl)methanesulfonamide]
19 | 95 nM | 90% |  |  | CS(=O)(=O)N[C@H]1CCCN(C(=O)C2CC2)[C@H]1CO[C@H]1CC[C@@H](c2cccc(OC(F)(F)F)c2)CC1 (relative stereo) [Example 299, N-(cis-1-(cyclopropylcarbonyl)-2-(((cis-4-(3-(trifluoromethoxy)phenyl)cyclohexyl)oxy)methyl)piperidin-3-yl)methanesulfonamide]
20 | 40 nM | 94% |  |  | CS(=O)(=O)N[C@H]1CCCN(C(=O)[C@H]2CCC(=O)O2)[C@H]1CO[C@H]1CC[C@@H](c2ccccc2)CC1 [Example 183, N-((2R,3S)-1-(((2R)-5-oxotetrahydrofuran-2-yl)carbonyl)-2-(((cis-4-phenylcyclohexyl)oxy)methyl)piperidin-3-yl)methanesulfonamide]
21 | 23 nM | 105% |  |  | COc1cccc([C@H]2CC[C@@H](OC[C@H]3[C@@H](NS(C)(=O)=O)CCCN3C(=O)C3CC3)CC2)c1 [Example 304, N-((2R,3S)-1-(cyclopropylcarbonyl)-2-(((cis-4-(3-methoxyphenyl)cyclohexyl)oxy)-methyl)piperidin-3-yl)methanesulfonamide]
22 | 2.2 nM | 101% |  |  | CN(C)S(=O)(=O)N[C@H]1CCCN(C(=O)C2CC2)[C@H]1CO[C@H]1CC[C@@H](c2ccccc2)CC1 [Example 310, N′-((2R,3S)-1-(cyclopropylcarbonyl)-2-(((cis-4-phenylcyclohexyl)oxy)methyl)-piperidin-3-yl)-N,N-dimethylsulfuric diamide]
23 | 300 nM | 88% |  |  | CS(=O)(=O)N[C@H]1CCCN(C(=O)C2CC2)[C@H]1CO[C@H]1C[C@@H](c2ccccc2)C1 (relative stereo) [Example 193, N-(cis-1-(cyclopropylcarbonyl)-2-(((cis-3-phenylcyclobutyl)oxy)methyl)piperidin-3-yl)methanesulfonamide]
24 | 1.7 nM | 105% |  |  | CS(=O)(=O)N[C@H]1CCCN(C(=O)C2CC2)[C@H]1CO[C@H]1CC[C@@H](c2cccc(F)c2F)CC1 [Example 250, N-((2R,3S)-1-(cyclopropylcarbonyl)-2-(((cis-4-(2,3-difluorophenyl)cyclohexyl)oxy)methyl)piperidin-3-yl)methanesulfonamide]
25 | 3000 nM | 91% |  |  | CCC(=O)N1CCC[C@H](NS(C)(=O)=O)[C@@H]1COC1CCN(c2ccccc2F)CC1 (relative stereo) [Example 219, N-(cis-2-(((1-(2-fluorophenyl)piperidin-4-yl)oxy)methyl)-1-propionylpiperidin-3-yl)methanesulfonamide]
26 |  |  | 39 nM | 89% | CC(C)[C@H]1CC[C@@H](OC[C@H]2[C@@H](NS(C)(=O)=O)CCCN2C(=O)C2CC(=O)C2)CC1 [Example 91, N-((2R,3S)-2-(((cis-4-isopropylcyclohexyl)oxy)methyl)-1-((3-oxocyclobutyl)carbonyl)piperidin-3-yl)methanesulfonamide]
27 | 28 nM | 96% |  |  | CS(=O)(=O)N[C@H]1CCCN(C(=O)OC2CC2)[C@H]1CO[C@H]1CC[C@@H](c2cccc(F)c2)CC1 [Example 272, cyclopropyl (2R,3S)-2-(((cis-4-(3-fluorophenyl)cyclohexyl)oxy)methyl)-3-((methylsulfonyl)amino)piperidine-1-carboxylate]
28 | 21 nM | 98% |  |  | CS(=O)(=O)N[C@H]1CCCN(C(=O)CO)[C@H]1CO[C@H]1CC[C@@H](c2ccccc2)CC1 [Example 185, N-((2R,3S)-1-glycoloyl-2-(((cis-4-phenylcyclohexyl)oxy)methyl)piperidin-3-yl)methanesulfonamide]
